# Columns and labels:
# db/db diabetic mice [1] = test: Type 2 diabetic renal damage, db/db mice, dose-dependency (Experimental Example 1); type: in vivo; details: db/db mice, 1.5, 5 and 10 mg/kg
# Procedure: The following animal experiments were performed to examine the inhibitory effect of the adenosine derivatives of the present invention on renal damage in the type 2 diabetes model.
# After 12 weeks of the administration, kidneys of the solvent control group and the test substance administration group were extracted to observe the histological changes of the glomeruli and the levels of urinary albumin and LPO (lipid peroxide) or the amount of mRNA expression for nephrin, NGAL, TGF-β, collagen IV, fibronectin, MCP-1 and ICAM-1 was set as an index for renal damage and the protective effect for kidney was measured. Db/m mice in which diabetes were not induced, were added as a control group and only a solvent was administered to observe and measure the above items.
# Of these indices, urinary albumin level means proteinuria, nephrin reduction means podocyte injury, NGAL increase means tubular injury, TGF-β increase means fibrosis, inflammatory cytokine (MCP-1, ICAM-1) increase means Inflammatory response and LPO values indicate oxidative stress.
# The morphological analysis of glomeruli was performed by PAS (Periodic Acid Schiff) staining of kidney tissues followed by random selection of each 50, quantification by an image analyzer and statistics, and urinary albumin and LPO were analyzed by electrophoresis and ELISA (Enzyme-Linked ImmunoSorbent Assay) and mRNA expression was analyzed by real time PCR.
# In FIG. 2 and FIG. 3, db/m represents normal mice, db/db represents diabetic mice administered with only solvent (0.25% CMC) and db/db+LJ2698 (1.5 mg/kg), db/db+LJ2698 (5 mg/kg) and db/db+LJ2698 (10 mg/kg) represent diabetic mice in which the compound of Chemical Formula B is administered at 1.5, 5 and 10 mg/kg, respectively, for 12 weeks daily.
# db/db diabetic mice [2] = test: Type 2 diabetic renal damage, db/db mice, comparison with Losartan (Experimental Example 2); type: in vivo; details: oral, daily 12 weeks, Formula B 10 mg/kg; for glomerular filtration rate decrease / glomerular hypertrophy / proteinuria / tubular injury: Losartan 1.5 mg/kg (FIG. 4-6); for renal fibrosis: Losartan 1.5 mg/kg (FIG. 7, 8); for inflammation response: Losartan 1.5 mg/kg (FIG. 9, 10); for oxidative stress: Losartan 1.5 mg/kg (FIG. 11, 12); for lipid accumulation: Losartan 1.5 mg/kg (FIG. 13, 14)
# Procedure: In order to compare the therapeutic efficacy between the adenosine derivative of the present invention and Losartan, which is used for alleviating the symptoms of diabetic kidney disease, the following animal experiments were performed.
# The compound of Chemical Formula B and rosartan were oral administered at a dose of 10 mg/kg and 1.5 mg/kg to 8-week-old normal db/m mice in which diabetes were not induced and 8-week-old db/db diaetic mice in which diabetes were induced, respectively for 12 weeks daily. The kidneys of the solvent control group and the drug administration group were extracted to observe the histological changes of the glomeruli and the changes in the indicators for renal damage such as proteinuria, glomerular filtration rate reduction, tubular injury, glomerular hypertrophy, renal fibrosis, inflammatory response, oxidative stress and lipid accumulation were compared.
# The morphological analysis of kidney including glomeruli was performed by PAS staining of kidney tissues followed by random selection of each 50, quantification by an image analyzer and statistics, and urinary albumin and LPO were analyzed by electrophoresis and ELISA (Enzyme-Linked ImmunoSorbent Assay) and mRNA expression was analyzed by real time PCR.
# Glomerular filtration rate was calculated by measuring blood and urine creatinine using the Jaffe method and changes in kidney protein were measured by western blot, ELISA and immunohistochemistry.
# In FIG. 4 to FIG. 14, db/m and db/db represent the mice to which the solvent (0.25% CMC) used in administering the compound of Chemical Formula B was administered, respectively, and db/m+LJ2698 and db/db+LJ2698 represent normal mice and diabetic mice to which the compound of Chemical Formula B is administered for 12 weeks, respectively. db/db+Losartan represents diabetic mice to which Losartan was administered for 12 weeks.
# [3] = tested on: mice in which type 1 diabetes was induced (STZ); test: Type 1 diabetic renal damage, streptozotocin-induced diabetic mice (Experimental Example 3); type: in vivo; details: daily 12 weeks, Formula B 10 mg/kg
# Procedure: The following animal experiments were performed to examine the inhibitory effect on the kidney injury by administering the adenosine derivative of the present invention to an animal model of type 1 diabetes.
# After streptozotocin (STZ) was administered to normal mice for 5 days to induce type 1 diabetes, the mice have been classified into, a group in which 10 mg/kg compound of Chemical Formula B was administered daily, a group in which 1.5 mg/kg of LC158809, a type of ARB, was administered daily, and a group in which 10 mg/kg compound of Chemical Formula B and 1.5 mg/kg of LC158809 were co-administered daily, then all groups were given total of 12 weeks administration.
# Kidney function and histologic changes of the kidney and the like were examined for normal mice to which streptozotocin was not administered, diabetic mice to which the only solvent was administered after 12 weeks of streptozotocin administration and diabetic mice to which test substance was administered after 12 weeks of streptozotocin administration.
# FIG. 15 to FIG. 17 are graphs showing the results of measuring the levels of urinary albumin, nephrin and 8-isoprostan according to the above-mentioned experiment. Urine albumin, nephrin and 8-isoprostanone levels were measured as indicators of proteinuria, glomerular podocyte damage and oxidative stress, respectively.
# In FIG. 15 to FIG. 19, Control and STZ represent normal mice and mice in which type 1 diabetes was induced, and STZ+ARB, STZ+LJ2698 and STZ+ARB+LJ2698 represent diabetic mice in which […] and the compound of Chemical Formula B+LC158809 (co-administration) were administered for 12 weeks, respectively.
# [4] = tested on: mice-derived glomerular podocyte; test: Inflammation and fibrosis response in cultured glomerular podocytes (Experimental Example 4); type: cell-based; details: induced with high glucose, angiotensin II and free fatty acids (FIG. 20)
# Procedure: (§1) In order to examine the anti-inflammatory and anti-fibrotic effects of the adenosine derivatives of the present invention on cultured cells, the following in vitro experiments were performed.
# [5] = tested on: mice-derived tubular epithelial cells; test: Inflammation and fibrosis response in cultured tubular epithelial cells (Experimental Example 4); type: cell-based; details: induced with high glucose, angiotensin II and free fatty acids (FIG. 20)
# Procedure: as §1
# [6] = LC158809 1.5 mg/kg (FIG. 18, 19)
structure (smiles),measurement,setting,value
"O[C@@H]1[C@H](O)CS[C@H]1n1cnc2c(NCc3cccc(Cl)c3)nc(Cl)nc21 [compound of Chemical Formula B, (2R,3R,4S)-2-(2-chloro-6-(3-chlorobenzylamino)-9H-purin-9-yl)tetrahydrothiophene-3,4-diol]",vasodilation (glomerular mesangium),"db/db diabetic mice [1]; 12 weeks (FIG. 1, 2)",significantly inhibited
same,urinary albumin levels (proteinuria),db/db diabetic mice [1]; 12 weeks (FIG. 3),inhibited dependently on dose
same,glomerular hypertrophy,"db/db diabetic mice [1]; 12 weeks, PAS staining (FIG. 1, 2)",significantly inhibited
same,NGAL (tubular injury indicator),"db/db diabetic mice [1]; 12 weeks, mRNA (FIG. 3)",inhibited dependently on dose
same,TGF-β (fibrosis indicator),"db/db diabetic mice [1]; 12 weeks, mRNA (FIG. 3)",inhibited dependently on dose
same,collagen IV,"db/db diabetic mice [1]; 12 weeks, mRNA (FIG. 3)",inhibited dependently on dose
same,nephrin (podocyte injury indicator),"db/db diabetic mice [1]; 12 weeks, mRNA (FIG. 3)",inhibited dependently on dose
same,glomerular filtration rate decrease,db/db diabetic mice [2],inhibited
same,glomerular hypertrophy,db/db diabetic mice [2],inhibited
same,proteinuria,db/db diabetic mice [2],inhibited
same,tubular injury,db/db diabetic mice [2],inhibited
same,renal fibrosis,db/db diabetic mice [2],inhibited to a similar level
same,inflammation response,db/db diabetic mice [2],inhibited to a similar level
same,oxidative stress,db/db diabetic mice [2],inhibited to a similar level
same,lipid accumulation,db/db diabetic mice [2],inhibited to a similar level
same,urinary nephrin (glomerular podocyte damage),[3]; LC158809 1.5 mg/kg (FIG. 16),significantly reduced
same,fibrosis of the kidney,[3]; [6],significantly reduced
same,inflammation of the kidney,[3]; [6],significantly reduced
same,urinary albumin (proteinuria),"[3]; LC158809 1.5 mg/kg, alone or co-administered (FIG. 15)",significantly reduced
same,urinary 8-isoprostanone (oxidative stress),"[3]; LC158809 1.5 mg/kg, alone or co-administered (FIG. 17)",significantly reduced
same,anti-fibrosis effect (collagen IV),[4],anti-fibrosis
same,"anti-inflammatory effect (Nephrin, MCP-1)",[4],anti-inflammatory effect
same,antioxidant effect (NOX4),[4],antioxidant
same,anti-fibrosis effect (collagen IV),[5],anti-fibrosis
same,"anti-inflammatory effect (Nephrin, MCP-1)",[5],anti-inflammatory effect
same,antioxidant effect (NOX4),[5],antioxidant
"CCCCc1nc(Cl)c(CO)n1Cc1ccc(-c2ccccc2-c2nn[nH]n2)cc1 [Losartan, (2-butyl-4-chloro-1-{[2′-(1H-tetrazol-5-yl)biphenyl-4-yl]methyl}-1H-imidazol-5-yl}methanol, reference compound]",glomerular filtration rate decrease,db/db diabetic mice [2],similar
same,glomerular hypertrophy,db/db diabetic mice [2],similar
same,proteinuria,db/db diabetic mice [2],similar
same,tubular injury,db/db diabetic mice [2],similar
same,renal fibrosis,db/db diabetic mice [2],inhibited to a similar level
same,inflammation response,db/db diabetic mice [2],inhibited to a similar level
same,oxidative stress,db/db diabetic mice [2],inhibited to a similar level
same,lipid accumulation,db/db diabetic mice [2],inhibited to a similar level
